Where two headings read alike, the source gives them in different places.
Key:
NSD2 (T1150A) = target: T1, NSD2 (T1150A) (Homo sapiens, UniProt O96028, T1150A); assay: Methyltransferase inhibition panel: NSD2 (T1150A); format: biochemical
T1 sequence (O96028 1-1365 T1150A): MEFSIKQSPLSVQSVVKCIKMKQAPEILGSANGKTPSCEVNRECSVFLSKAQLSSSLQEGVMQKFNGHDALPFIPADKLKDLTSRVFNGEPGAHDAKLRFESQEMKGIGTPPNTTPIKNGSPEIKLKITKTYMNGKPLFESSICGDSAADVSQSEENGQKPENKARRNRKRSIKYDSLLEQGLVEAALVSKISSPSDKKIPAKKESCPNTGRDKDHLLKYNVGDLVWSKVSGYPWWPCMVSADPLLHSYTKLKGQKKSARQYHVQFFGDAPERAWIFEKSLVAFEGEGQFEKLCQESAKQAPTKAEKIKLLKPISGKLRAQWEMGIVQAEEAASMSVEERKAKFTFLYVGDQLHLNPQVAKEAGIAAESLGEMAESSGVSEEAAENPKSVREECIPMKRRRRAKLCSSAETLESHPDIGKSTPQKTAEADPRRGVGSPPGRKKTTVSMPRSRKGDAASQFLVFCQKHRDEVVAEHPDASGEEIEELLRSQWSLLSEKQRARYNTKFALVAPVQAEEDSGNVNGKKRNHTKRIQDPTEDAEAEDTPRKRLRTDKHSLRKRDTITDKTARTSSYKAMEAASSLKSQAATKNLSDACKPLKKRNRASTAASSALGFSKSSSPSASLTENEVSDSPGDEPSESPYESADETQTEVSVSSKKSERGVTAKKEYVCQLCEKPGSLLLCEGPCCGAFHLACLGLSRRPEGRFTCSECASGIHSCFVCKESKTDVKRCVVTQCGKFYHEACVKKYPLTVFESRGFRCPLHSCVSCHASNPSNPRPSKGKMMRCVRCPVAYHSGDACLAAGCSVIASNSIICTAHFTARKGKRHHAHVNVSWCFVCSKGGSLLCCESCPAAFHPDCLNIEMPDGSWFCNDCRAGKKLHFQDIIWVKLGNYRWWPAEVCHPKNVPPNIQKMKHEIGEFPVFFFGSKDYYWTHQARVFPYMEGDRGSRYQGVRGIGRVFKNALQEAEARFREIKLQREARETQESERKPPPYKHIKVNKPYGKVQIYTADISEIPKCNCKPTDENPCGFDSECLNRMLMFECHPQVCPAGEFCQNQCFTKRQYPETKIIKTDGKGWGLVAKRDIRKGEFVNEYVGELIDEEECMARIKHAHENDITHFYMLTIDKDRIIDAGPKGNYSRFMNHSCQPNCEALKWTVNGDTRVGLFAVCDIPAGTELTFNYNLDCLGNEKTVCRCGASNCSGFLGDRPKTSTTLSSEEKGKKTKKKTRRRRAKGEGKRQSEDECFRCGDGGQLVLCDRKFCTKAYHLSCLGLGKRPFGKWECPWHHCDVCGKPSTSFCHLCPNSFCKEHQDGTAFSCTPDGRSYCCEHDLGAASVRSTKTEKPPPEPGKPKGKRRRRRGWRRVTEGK
Experimental: (§1) The ability of ETP69 to inhibit methyltransferases was tested.

SET1b Complex = SET1b Complex (Homo sapiens, UniProt Q9UPS6); assay: Methyltransferase inhibition panel: SET1b Complex; format: biochemical
Experimental: as §1

[1] = test system: soluble fraction of brain homogenates; assay: Mass spectrometry proteomics of brain homogenates with IPA; format: in vivo, mice
Experimental: The results included levodopa (L-dopa), a naturally occurring product that is also a drug for the management of Parkinson's motor symptoms.
Mass spectrometry (MS) analysis on the soluble fraction of brain homogenates extracted from the […] WT and neurodegenerative (AD) mice cohort was performed (DMSO-treated WT mice: n=8; ETP69-treated WT mice: n=7; DMSO-treated AD^+ mice: n=6; ETP69-treated AD^+ n=6).
The effects of ETP69 on the molecular pathways related to neuroprotection and cognitive function was assessed.

PRDM9 = PRDM9 (Homo sapiens, UniProt Q9NQV7); assay: Methyltransferase inhibition panel: PRDM9; format: biochemical
Experimental: as §1

SET8 = target: T2, SET8 (Homo sapiens, UniProt Q9NQR1); assay: Methyltransferase inhibition panel: SET8; format: biochemical
T2 sequence (Q9NQR1 1-393): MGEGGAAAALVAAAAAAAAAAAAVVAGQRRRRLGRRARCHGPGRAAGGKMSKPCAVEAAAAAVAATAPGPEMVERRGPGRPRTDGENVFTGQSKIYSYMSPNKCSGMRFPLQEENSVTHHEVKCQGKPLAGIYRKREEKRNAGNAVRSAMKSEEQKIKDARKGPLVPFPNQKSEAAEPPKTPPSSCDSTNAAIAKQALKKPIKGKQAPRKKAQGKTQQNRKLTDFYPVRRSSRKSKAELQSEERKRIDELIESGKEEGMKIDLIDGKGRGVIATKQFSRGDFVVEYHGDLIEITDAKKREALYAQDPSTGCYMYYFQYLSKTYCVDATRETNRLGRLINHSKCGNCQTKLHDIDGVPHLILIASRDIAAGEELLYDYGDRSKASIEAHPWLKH
Experimental: as §1

PRMT3 = PRMT3 (Homo sapiens, UniProt O60678); assay: Methyltransferase inhibition panel: PRMT3; format: biochemical
Experimental: as §1

[2] = read-out: Enzyme % Activity (relative to DMSO controls) Data 1
[3] = read-out: Enzyme % Activity (relative to DMSO controls) Data 2

Sequence of PRDM9 (Q9NQV7 whole entry): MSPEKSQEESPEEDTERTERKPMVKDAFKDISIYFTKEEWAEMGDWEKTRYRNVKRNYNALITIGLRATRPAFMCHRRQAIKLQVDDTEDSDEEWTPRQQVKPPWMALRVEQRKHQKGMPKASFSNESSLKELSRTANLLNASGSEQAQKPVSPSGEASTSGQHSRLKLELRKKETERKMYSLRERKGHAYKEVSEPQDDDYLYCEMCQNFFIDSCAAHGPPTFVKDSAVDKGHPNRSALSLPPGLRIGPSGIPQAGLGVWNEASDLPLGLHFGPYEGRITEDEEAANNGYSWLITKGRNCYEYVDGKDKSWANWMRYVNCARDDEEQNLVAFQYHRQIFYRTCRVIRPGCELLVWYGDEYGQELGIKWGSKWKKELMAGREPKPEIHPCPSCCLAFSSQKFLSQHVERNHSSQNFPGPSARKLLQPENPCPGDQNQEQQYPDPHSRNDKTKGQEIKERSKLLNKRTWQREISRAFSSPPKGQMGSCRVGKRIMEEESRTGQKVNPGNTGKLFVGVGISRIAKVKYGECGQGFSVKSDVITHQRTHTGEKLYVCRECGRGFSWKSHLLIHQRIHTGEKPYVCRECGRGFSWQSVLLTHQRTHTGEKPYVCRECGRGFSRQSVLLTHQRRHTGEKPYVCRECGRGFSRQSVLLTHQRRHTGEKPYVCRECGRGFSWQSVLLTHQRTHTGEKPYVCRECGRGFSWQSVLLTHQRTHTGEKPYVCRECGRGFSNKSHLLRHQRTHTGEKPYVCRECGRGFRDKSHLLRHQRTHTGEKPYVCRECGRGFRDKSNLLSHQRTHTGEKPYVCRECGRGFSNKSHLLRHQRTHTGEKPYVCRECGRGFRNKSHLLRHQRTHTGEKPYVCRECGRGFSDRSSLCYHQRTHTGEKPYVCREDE
Sequence of SET1b Complex (Q15291 whole entry): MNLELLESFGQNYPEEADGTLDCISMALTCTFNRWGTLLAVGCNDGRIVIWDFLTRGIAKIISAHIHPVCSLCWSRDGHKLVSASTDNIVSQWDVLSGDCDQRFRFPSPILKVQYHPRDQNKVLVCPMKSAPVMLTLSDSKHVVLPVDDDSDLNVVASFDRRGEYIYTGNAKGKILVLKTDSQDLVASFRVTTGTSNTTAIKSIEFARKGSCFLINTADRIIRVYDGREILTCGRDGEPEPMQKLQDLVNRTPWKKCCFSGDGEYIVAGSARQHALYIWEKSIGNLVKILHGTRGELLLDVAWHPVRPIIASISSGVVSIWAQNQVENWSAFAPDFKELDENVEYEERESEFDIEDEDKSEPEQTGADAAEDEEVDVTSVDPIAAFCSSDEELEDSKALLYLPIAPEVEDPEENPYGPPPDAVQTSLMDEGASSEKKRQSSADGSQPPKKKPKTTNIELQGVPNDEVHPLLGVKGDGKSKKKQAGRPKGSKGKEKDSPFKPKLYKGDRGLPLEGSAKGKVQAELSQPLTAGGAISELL
Sequence of SET1b Complex (Q9UBL3 whole entry, further chain): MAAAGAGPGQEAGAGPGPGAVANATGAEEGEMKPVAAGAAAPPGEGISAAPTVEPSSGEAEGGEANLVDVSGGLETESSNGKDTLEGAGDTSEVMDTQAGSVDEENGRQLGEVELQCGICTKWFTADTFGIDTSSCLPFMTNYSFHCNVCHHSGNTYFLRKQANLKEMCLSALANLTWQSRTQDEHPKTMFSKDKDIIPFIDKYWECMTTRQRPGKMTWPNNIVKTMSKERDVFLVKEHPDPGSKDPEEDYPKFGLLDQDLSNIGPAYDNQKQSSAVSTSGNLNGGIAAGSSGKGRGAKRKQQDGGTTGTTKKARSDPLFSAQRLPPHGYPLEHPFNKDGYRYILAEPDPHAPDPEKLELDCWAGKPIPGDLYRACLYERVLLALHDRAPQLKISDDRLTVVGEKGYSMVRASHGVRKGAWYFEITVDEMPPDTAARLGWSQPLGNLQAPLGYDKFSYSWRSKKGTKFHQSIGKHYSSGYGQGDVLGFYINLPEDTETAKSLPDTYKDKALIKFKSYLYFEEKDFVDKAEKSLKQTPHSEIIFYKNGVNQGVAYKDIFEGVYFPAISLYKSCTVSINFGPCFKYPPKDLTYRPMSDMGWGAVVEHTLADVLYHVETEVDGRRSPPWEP
Sequence of SET1b Complex (Q9UPS6 whole entry): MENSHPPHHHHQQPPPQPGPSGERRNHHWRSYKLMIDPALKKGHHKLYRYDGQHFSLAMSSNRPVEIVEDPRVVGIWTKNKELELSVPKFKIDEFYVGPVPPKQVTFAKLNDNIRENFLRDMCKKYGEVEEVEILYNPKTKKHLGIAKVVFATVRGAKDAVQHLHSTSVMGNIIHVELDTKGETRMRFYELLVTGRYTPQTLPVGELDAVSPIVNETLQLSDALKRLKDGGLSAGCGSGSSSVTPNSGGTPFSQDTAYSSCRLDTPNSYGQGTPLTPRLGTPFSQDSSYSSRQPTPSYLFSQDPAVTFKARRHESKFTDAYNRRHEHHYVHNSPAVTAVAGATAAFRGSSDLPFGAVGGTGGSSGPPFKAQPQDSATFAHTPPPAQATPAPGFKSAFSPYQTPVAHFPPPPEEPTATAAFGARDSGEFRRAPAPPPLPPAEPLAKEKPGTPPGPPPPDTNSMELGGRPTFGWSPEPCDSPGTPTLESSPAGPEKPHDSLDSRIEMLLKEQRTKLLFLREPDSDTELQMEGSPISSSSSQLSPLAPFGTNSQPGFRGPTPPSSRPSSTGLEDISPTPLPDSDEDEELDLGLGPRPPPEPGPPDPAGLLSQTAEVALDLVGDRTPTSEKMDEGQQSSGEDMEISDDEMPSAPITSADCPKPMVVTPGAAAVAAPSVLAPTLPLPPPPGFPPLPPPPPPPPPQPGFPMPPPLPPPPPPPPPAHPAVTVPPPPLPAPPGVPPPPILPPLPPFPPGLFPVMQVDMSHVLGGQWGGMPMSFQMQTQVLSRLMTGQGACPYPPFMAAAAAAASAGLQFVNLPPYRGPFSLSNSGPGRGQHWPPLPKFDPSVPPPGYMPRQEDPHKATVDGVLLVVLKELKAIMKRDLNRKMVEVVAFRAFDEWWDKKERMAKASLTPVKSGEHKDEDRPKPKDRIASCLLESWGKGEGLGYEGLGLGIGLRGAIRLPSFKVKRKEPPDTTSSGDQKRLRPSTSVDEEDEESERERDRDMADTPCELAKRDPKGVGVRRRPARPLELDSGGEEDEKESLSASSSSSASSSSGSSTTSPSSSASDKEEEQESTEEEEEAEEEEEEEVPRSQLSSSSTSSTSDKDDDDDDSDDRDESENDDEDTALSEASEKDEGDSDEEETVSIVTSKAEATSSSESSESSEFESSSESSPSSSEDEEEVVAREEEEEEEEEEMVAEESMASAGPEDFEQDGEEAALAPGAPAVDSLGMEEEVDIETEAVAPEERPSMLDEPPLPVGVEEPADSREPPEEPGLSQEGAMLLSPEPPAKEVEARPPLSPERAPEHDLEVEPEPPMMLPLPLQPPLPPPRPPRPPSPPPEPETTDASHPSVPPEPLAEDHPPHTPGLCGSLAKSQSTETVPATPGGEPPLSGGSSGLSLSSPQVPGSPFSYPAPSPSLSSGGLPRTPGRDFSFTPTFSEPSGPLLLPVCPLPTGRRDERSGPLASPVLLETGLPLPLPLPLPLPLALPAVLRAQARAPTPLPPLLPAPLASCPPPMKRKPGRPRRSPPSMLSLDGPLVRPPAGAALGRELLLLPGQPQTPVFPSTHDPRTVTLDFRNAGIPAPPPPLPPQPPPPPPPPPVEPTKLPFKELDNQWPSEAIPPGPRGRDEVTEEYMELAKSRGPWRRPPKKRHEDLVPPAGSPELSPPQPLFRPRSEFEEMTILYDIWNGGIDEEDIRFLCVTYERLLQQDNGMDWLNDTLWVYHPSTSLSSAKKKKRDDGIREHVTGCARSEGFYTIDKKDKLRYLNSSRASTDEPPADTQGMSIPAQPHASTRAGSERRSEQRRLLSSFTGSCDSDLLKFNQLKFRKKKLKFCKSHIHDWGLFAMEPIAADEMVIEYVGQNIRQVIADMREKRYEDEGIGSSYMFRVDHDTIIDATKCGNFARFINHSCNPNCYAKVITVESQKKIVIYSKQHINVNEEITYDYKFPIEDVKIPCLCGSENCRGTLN
Sequence of SET1b Complex (Q9C005 whole entry, further chain): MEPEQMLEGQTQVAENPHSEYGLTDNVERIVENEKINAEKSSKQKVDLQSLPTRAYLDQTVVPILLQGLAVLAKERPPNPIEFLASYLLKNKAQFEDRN
Sequence of PRMT3 (O60678 whole entry): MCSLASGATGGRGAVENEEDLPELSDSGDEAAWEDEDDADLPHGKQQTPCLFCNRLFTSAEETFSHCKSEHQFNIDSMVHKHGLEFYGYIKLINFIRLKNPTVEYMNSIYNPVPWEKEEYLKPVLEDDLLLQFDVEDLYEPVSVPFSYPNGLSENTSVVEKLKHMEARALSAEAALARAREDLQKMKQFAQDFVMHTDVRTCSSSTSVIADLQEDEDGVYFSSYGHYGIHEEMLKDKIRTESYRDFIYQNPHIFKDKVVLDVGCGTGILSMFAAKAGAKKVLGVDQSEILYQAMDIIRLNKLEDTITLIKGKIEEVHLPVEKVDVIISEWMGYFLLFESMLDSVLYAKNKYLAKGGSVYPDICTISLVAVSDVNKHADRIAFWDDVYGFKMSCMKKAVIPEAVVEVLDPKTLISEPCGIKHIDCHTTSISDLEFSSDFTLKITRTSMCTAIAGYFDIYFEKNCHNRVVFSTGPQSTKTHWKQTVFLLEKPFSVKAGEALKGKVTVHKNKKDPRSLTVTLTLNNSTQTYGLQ

Compound: CN1C(=O)[C@@]23C[C@](C)(C#N)[C@H](c4ccc5c(c4)OCO5)N2C(=O)[C@]1(C)SS3 (racemic) [ETP69, Rac-(3S,6S,7S,8aS)-6-(benzo[d][1,3]dioxol-5-yl)-2,3,7-trimethyl-1,4-dioxohexahydro-6H-3,8a-epidithiopyrrolo[1,2-a]pyrazine-7-carbonitrile]
- remaining activity at 20 µM (NSD2 (T1150A); [2]): 23.9%
- remaining activity at 20 µM (NSD2 (T1150A); [3]): 25.5%
- inhibition relative to DMSO controls (NSD2 (T1150A); summary of Table 1): at least 7500
- remaining activity at 20 µM (SET1b Complex; [2]): 0.6%
- remaining activity at 20 µM (SET1b Complex; [3]): 0.47%
- inhibition relative to DMSO controls (SET1b Complex; summary of Table 1): at least 7500
- pathways of learning, cognition, quantity of neurons, dendritic growth and branching (IPA) ([1]; AD+ mice): significantly activated
- Mapt protein upregulation ([1]; AD+ mice, p=0.0188): 2.4 fold
- Gfra2 protein ([1]; ETP69-treated mice, p=0.0056): significantly increased
- Lrrn4 protein upregulation ([1]; ETP69-treated versus DMSO-control AD+ mice, p=0.015): 1.73 fold
- brain neurotrophic factors (NTFs) expression including BDNF, VGF and levodopa ([1]; proteome signatures): induced
- remaining activity at 20 µM (PRDM9; [2]): 46.2%
- remaining activity at 20 µM (PRDM9; [3]): 47.1%
- inhibition relative to DMSO controls (PRDM9; summary of Table 1): at least 7500
- remaining activity at 20 µM (SET8; [2]): 92.3%
- remaining activity at 20 µM (SET8; [3]): 92.6%
- remaining activity at 20 µM (PRMT3; [2]): 94%
- remaining activity at 20 µM (PRMT3; [3]): 95%

Source: patent US20260207585A1, “METHODS AND COMPOSITIONS FOR THE TREATMENT OF PARKINSON'S DISEASE, HUNTINGTON'S DISEASE, AMYOTROPHIC LATERAL SCLEROSIS, AND LEARNING DISORDERS” (Cedars-Sinai Medical Center, priority 2022, published 2026)
